Laboratory results: patent publication US8299111B2, “Compounds which modulate the CB2 receptor” (Boehringer Ingelheim International GmbH, priority 2006, dated 2012)

Target: T1, human CB2R (Homo sapiens, UniProt P34972)
T1 construct: host or cells: CHO cells
Assay: CB2R mediated modulation of cAMP synthesis
Format: cell-based
Settings: found through the use of the above described assays (binding and cAMP); CHO cells expressing human CB2R, forskolin-stimulated cAMP
Method: B. CB2R Mediated Modulation of cAMP Synthesis:
CHO cells expressing human CB2R (Euroscreen) were plated at a density of 5000 cells per well in 384 well plates and incubated overnight at 37° C. After removing the media, the cells were treated with test compounds diluted in stimulation buffer containing 1 mM IBMX, 0.25% BSA and 10 uM Forskolin. The assay was incubated for 30 minutes at 37° C. Cells were lysed and the cAMP concentration was measured using DiscoverX -XS cAMP kit, following the manufacturer's protocol. In this setting, agonists will decrease forskolin induced production of cAMP while inverse agonists will further increase forskolin induced production of cAMP. EC50 of agonists were calculated as follows. The maximal amount of cAMP produced by forskolin compared to the level of cAMP inhibited by 1 uM CP55940 is defined as 100%. The EC50 value of each test compound was determined as the concentration at which 50% of the forskolin-stimulated cAMP synthesis was inhibited. Data was analyzed using a four-parameter logistic model. (Model 205 of XLfit 4.0).

T1 sequence (P34972 whole entry): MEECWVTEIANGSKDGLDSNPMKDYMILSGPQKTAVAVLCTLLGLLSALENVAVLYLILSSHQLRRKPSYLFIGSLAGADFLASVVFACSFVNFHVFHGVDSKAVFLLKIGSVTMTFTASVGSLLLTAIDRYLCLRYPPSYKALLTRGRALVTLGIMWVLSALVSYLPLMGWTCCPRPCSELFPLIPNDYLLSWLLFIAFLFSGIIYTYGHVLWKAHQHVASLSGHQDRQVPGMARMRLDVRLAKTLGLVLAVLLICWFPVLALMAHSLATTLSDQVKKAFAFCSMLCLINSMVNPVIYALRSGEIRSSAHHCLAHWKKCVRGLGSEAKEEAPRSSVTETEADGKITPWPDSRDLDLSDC

Row | agonistic activity | Structure (SMILES)
1 | agonistic activity | COc1ccc(S(=O)(=O)C(C)(C)C(=O)Nc2ccc(C(F)(F)F)cn2)cc1F [2-(3-Fluoro-4-methoxy-benzenesulfonyl)-2-methyl-N-(5-trifluoromethyl-pyridin-2-yl)-propionamide]
2 | agonistic activity | COc1ccc(S(=O)(=O)C(C)(C)C(=O)Nc2cccc(C(F)(F)F)n2)cc1F [2-(3-Fluoro-4-methoxy-benzenesulfonyl)-2-methyl-N-(6-trifluoromethyl-pyridin-2-yl)-propionamide]
3 | agonistic activity | Cc1ccc(S(=O)(=O)C(C)(C)C(=O)Nc2ccc(C(F)(F)F)cn2)cc1F [2-(3-Fluoro-4-methyl-benzenesulfonyl)-2-methyl-N-(5-trifluoromethyl-pyridin-2-yl)-propionamide]
4 | agonistic activity | Cc1ccc(S(=O)(=O)C(C)(C)C(=O)Nc2cccc(C(F)(F)F)n2)cc1F [2-(3-Fluoro-4-methyl-benzenesulfonyl)-2-methyl-N-(6-trifluoromethyl-pyridin-2-yl)-propionamide]
5 | agonistic activity | CC(C)(C(=O)Nc1ccc(C(F)(F)F)cn1)S(=O)(=O)c1cccc(F)c1 [2-(3-Fluoro-benzenesulfonyl)-2-methyl-N-(5-trifluoromethyl-pyridin-2-yl)-propionamide]
6 | agonistic activity | CC(C)(C(=O)Nc1cccc(C(F)(F)F)n1)S(=O)(=O)c1ccc(Br)cc1 [2-(4-Bromo-benzenesulfonyl)-2-methyl-N-(6-trifluoromethyl-pyridin-2-yl)-propionamide]
7 | agonistic activity | Cn1nc(C(C)(C)C)cc1NC(=O)C(C)(C)S(=O)(=O)c1ccc(Br)cc1 [2-(4-Bromo-benzenesulfonyl)-N-(5-tert-butyl-2-methyl-2H-pyrazol-3-yl)-2-methyl-propionamide]
8 | agonistic activity | Cn1nc(-c2ccccc2)cc1NC(=O)C(C)(C)S(=O)(=O)c1ccc(Cl)cc1F [2-(4-Chloro-2-fluoro-benzenesulfonyl)-2-methyl-N-(2-methyl-5-phenyl-2H-pyrazol-3-yl)-propionamide]
9 | agonistic activity | CC(C)(C(=O)Nc1cc(C(F)(F)F)ccn1)S(=O)(=O)c1ccc(Cl)cc1F [2-(4-Chloro-2-fluoro-benzenesulfonyl)-2-methyl-N-(4-trifluoromethyl-pyridin-2-yl)-propionamide]
10 | agonistic activity | CC(C)(C(=O)Nc1ccc(C(F)(F)F)cn1)S(=O)(=O)c1ccc(Cl)cc1F [2-(4-Chloro-2-fluoro-benzenesulfonyl)-2-methyl-N-(5-trifluoromethyl-pyridin-2-yl)-propionamide]
11 | agonistic activity | CCc1sc(NC(=O)C(C)(C)S(=O)(=O)c2ccc(Cl)cc2F)nc1-c1ccccc1 [2-(4-Chloro-2-fluoro-benzenesulfonyl)-N-(5-ethyl-4-phenyl-thiazol-2-yl)-2-methyl-propionamide]
12 | agonistic activity | Cn1c(NC(=O)C(C)(C)S(=O)(=O)c2ccc(Cl)cc2)nc2ccccc21 [2-(4-Chloro-benzenesulfonyl)-2-methyl-N-(1-methyl-1H-benzoimidazol-2-yl)-propionamide]
13 | agonistic activity | Cn1nc(-c2ccccc2)cc1NC(=O)C(C)(C)S(=O)(=O)c1ccc(Cl)cc1 [2-(4-Chloro-benzenesulfonyl)-2-methyl-N-(2-methyl-5-phenyl-2H-pyrazol-3-yl)-propionamide]
14 | agonistic activity | Cn1nc(-c2cccs2)cc1NC(=O)C(C)(C)S(=O)(=O)c1ccc(Cl)cc1 [2-(4-Chloro-benzenesulfonyl)-2-methyl-N-(2-methyl-5-thiophen-2-yl-2H-pyrazol-3-yl)-propionamide]

More lines, now with the values behind:

Row | Structure (SMILES) | agonistic activity
15 | CC(C)(C)c1csc(NC(=O)C2(S(=O)(=O)c3ccc(C(F)(F)F)cc3)CC2)n1 [1-(4-Trifluoromethyl-benzenesulfonyl)-cyclopropanecarboxylic acid (4-tert-butyl-thiazol-2-yl)-amide] | agonistic activity
16 | O=C(Nc1cc(C(F)(F)F)ccn1)C1(S(=O)(=O)c2ccc(C(F)(F)F)cc2)CC1 [1-(4-Trifluoromethyl-benzenesulfonyl)-cyclopropanecarboxylic acid (4-trifluoromethyl-pyridin-2-yl)-amide] | agonistic activity
17 | Cn1nc(C(C)(C)C)cc1NC(=O)C1(S(=O)(=O)c2ccc(C(F)(F)F)cc2)CC1 [1-(4-Trifluoromethyl-benzenesulfonyl)-cyclopropanecarboxylic acid (5-tert-butyl-2-methyl-2H-pyrazol-3-yl)-amide] | agonistic activity
18 | Cc1nc(NC(=O)C2(S(=O)(=O)c3ccc(C(F)(F)F)cc3)CC2)sc1C(C)(C)C [1-(4-Trifluoromethyl-benzenesulfonyl)-cyclopropanecarboxylic acid (5-tert-butyl-4-methyl-thiazol-2-yl)-amide] | agonistic activity
19 | CC(C)(C)c1cc(NC(=O)C2(S(=O)(=O)c3ccc(C(F)(F)F)cc3)CC2)no1 [1-(4-Trifluoromethyl-benzenesulfonyl)-cyclopropanecarboxylic acid (5-tert-butyl-isoxazol-3-yl)-amide] | agonistic activity
20 | O=C(Nc1ccc(C(F)(F)F)cn1)C1(S(=O)(=O)c2ccc(C(F)(F)F)cc2)CC1 [1-(4-Trifluoromethyl-benzenesulfonyl)-cyclopropanecarboxylic acid (5-trifluoromethyl-pyridin-2-yl)-amide] | agonistic activity
21 | O=C(Nc1cccc(C(F)(F)F)n1)C1(S(=O)(=O)c2ccc(C(F)(F)F)cc2)CC1 [1-(4-Trifluoromethyl-benzenesulfonyl)-cyclopropanecarboxylic acid (6-trifluoromethyl-pyridin-2-yl)-amide] | agonistic activity
22 | Cn1nc(-c2ccccc2)cc1NC(=O)C(C)(C)S(=O)(=O)c1ccc(F)cc1F [2-(2,4-Difluoro-benzenesulfonyl)-2-methyl-N-(2-methyl-5-phenyl-2H-pyrazol-3-yl)-propionamide] | agonistic activity
23 | CC(C)(C(=O)Nc1nc(-c2ccccn2)cs1)S(=O)(=O)c1ccc(F)cc1F [2-(2,4-Difluoro-benzenesulfonyl)-2-methyl-N-(4-pyridin-2-yl-thiazol-2-yl)-propionamide] | agonistic activity
24 | CC(C)(C(=O)Nc1nc(-c2cccnc2)cs1)S(=O)(=O)c1ccc(F)cc1F [2-(2,4-Difluoro-benzenesulfonyl)-2-methyl-N-(4-pyridin-3-yl-thiazol-2-yl)-propionamide] | agonistic activity
25 | CC(C)(C(=O)Nc1cccc2ccccc12)S(=O)(=O)c1ccc(F)cc1F [2-(2,4-Difluoro-benzenesulfonyl)-2-methyl-N-naphthalen-1-yl-propionamide] | agonistic activity
26 | CC(C)(C(=O)Nc1cnc2ccccc2c1)S(=O)(=O)c1ccc(F)cc1F [2-(2,4-Difluoro-benzenesulfonyl)-2-methyl-N-quinolin-3-yl-propionamide] | agonistic activity
27 | CC(C)(C(=O)Nc1cc2ccccc2cn1)S(=O)(=O)c1ccc(F)cc1F [2-(2,4-Difluoro-benzenesulfonyl)-N-isoquinolin-3-yl-2-methyl-propionamide] | agonistic activity
28 | CC(C)(C(=O)Nc1ccc(C(F)(F)F)cn1)S(=O)(=O)c1cc(F)ccc1F [2-(2,5-Difluoro-benzenesulfonyl)-2-methyl-N-(5-trifluoromethyl-pyridin-2-yl)-propionamide] | agonistic activity
29 | CC(C)(C(=O)Nc1cccc(C(F)(F)F)n1)S(=O)(=O)c1cc(F)ccc1F [2-(2,5-Difluoro-benzenesulfonyl)-2-methyl-N-(6-trifluoromethyl-pyridin-2-yl)-propionamide] | agonistic activity
30 | Cc1ccc(S(=O)(=O)C(C)(C)C(=O)Nc2ccc(C(F)(F)F)cn2)c(F)c1 [2-(2-Fluoro-4-methyl-benzenesulfonyl)-2-methyl-N-(5-trifluoromethyl-pyridin-2-yl)-propionamide] | agonistic activity
31 | CC(C)(C(=O)Nc1ccc(C(F)(F)F)cn1)S(=O)(=O)c1ccccc1F [2-(2-Fluoro-benzenesulfonyl)-2-methyl-N-(5-trifluoromethyl-pyridin-2-yl)-propionamide] | agonistic activity
32 | CC(C)(C(=O)Nc1ccc(C(F)(F)F)cn1)S(=O)(=O)c1ccc(Br)cc1 [2-(4-Bromo-benzenesulfonyl)-2-methyl-N-(5-trifluoromethyl-pyridin-2-yl)-propionamide] | agonistic activity
33 | CC(C)(C)c1cc(NC(=O)C(C)(C)S(=O)(=O)c2ccc(Br)cc2)no1 [2-(4-Bromo-benzenesulfonyl)-N-(5-tert-butyl-isoxazol-3-yl)-2-methyl-propionamide] | agonistic activity
34 | CC(C)(C(=O)Nc1cccc(C(F)(F)F)n1)S(=O)(=O)c1ccc(Cl)cc1F [2-(4-Chloro-2-fluoro-benzenesulfonyl)-2-methyl-N-(6-trifluoromethyl-pyridin-2-yl)-propionamide] | agonistic activity
35 | CC(C)(C(=O)Nc1ccccc1C(F)(F)F)S(=O)(=O)c1ccc(Cl)cc1 [2-(4-Chloro-benzenesulfonyl)-2-methyl-N-(2-trifluoromethyl-phenyl)-propionamide] | agonistic activity
